# Read-outs that look alike come from different tables or passages of the source.
# Tests used:
# [1] = molecular target: Recombinant human Bcl-2 protein (Homo sapiens (Human), UniProt P10415); test: Bcl-2 TR-FRET Assay; assay type: binding
# Procedure, shortened: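 0.05 nM Bcl-2 pre-incubated 0.5 h at room temperature with 10-point compound dilutions (top final 1, 0.1, 0.02 or 0.01 uM) in 20 mM potassium phosphate pH 7.5, 50 mM NaCl, 1 mM EDTA, 0.05% Tween-20, 0.01% BSA; FITC-Bak peptide (0.5 nM) and anti-6His Tb cryptate added, 1 h. IC50 from four-parameter logistic fit.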
# [2] = molecular target: recombinant human Bcl-2 D103Y protein (Homo sapiens (Human), UniProt P10415, D103Y); test: Bcl-2-D103Y Biochemical Assay (TR-FRET); assay type: binding; conditions: for IC50: TR-FRET, FITC labeled Bak peptide; for Ratio of Bcl-2 D103Y/Bcl-2 WT: ratio of IC50
# Procedure, shortened: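 Recombinant human Bcl-2 D103Y binding to its ligand measured by TR-FRET (ex 337 nm, em 490/520 nm) with increasing compound concentrations. Percent inhibition from the 490/520 nm ratio; IC50 from four-parameter logistic fit.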
# [3] = Metabolic Stability Study, liver microsome incubation (human); assay type: in vitro ADME; conditions: human liver microsomes 0.5 mg/mL, 1 μM compound, NADPH; for half-life at 1 μM: NA^# = very stable, beyond the detection limits, read-out: T1/2 (min) Human; for microsomal CLint at 1 μM: read-out: CLint (μL × min^−1 × mg^−1) Human
# Experimental: (§1) Biological Example: Metabolic Stability Study
# (§2) The metabolic stability of some compounds was evaluated by using the liver microsome incubation system in vitro. Briefly, the test compounds at 1 μM, were incubated with 0.5 mg/mL liver microsomes from different species (human, dog, rat and mouse) with an NADPH regenerating system at 37° C. Samples were quenched at three time points (0, 30, 60 min) with organic solvent containing internal standards, and the supernatant was analyzed for parent loss via LC-MS/MS. Midazolam was used as the positive control to validate the incubation system.
# (§3) where Cprotein is the microsomal protein concentration in the incubation system.
# (§4) The value of CLint and T1/2 of Example F132b in WO2019210818 and representative compounds of the disclosure were determined, and the results are shown in Table 5.
# [4] = Metabolic Stability Study, liver microsome incubation (mouse); assay type: in vitro ADME; conditions: mouse liver microsomes 0.5 mg/mL, 1 μM compound, NADPH; for half-life at 1 μM: NA^# = very stable, beyond the detection limits, read-out: T1/2 (min) mouse; for microsomal CLint at 1 μM: read-out: CLint (μL × min^−1 × mg^−1) mouse
# Experimental: as §1, §2, §3, §4
# [5] = test system: RS4;11 (BCL-2 dependent acute lymphoblastic leukemia cell line); test: RS4;11 Cell Proliferation Assay; assay type: cell-based; conditions: Homo sapiens, read-out: Cellular proliferation assay (IC50, nM) RS4
# Procedure, shortened: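 RS4;11 cells, 50,000 per well in RPMI-1640 with 10% FBS, treated 48 h at 37 °C with a 10-point dilution series topping at 1 μM. Viability read by CellTiter-Glo ATP luminescence; mean IC50 reported.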
# [6] = test system: BCL-2 G101V knock-in cell line H96 (derive from RS4;11); test: Bcl 2-G101V Knock-In RS4;11 Cell Proliferation Assay; assay type: cell-based; conditions: Homo sapiens, RS4;11 Bcl-2 G101V knock-in clone H96, 48 hrs, CellTiter-GLO, read-out: Cellular proliferation assay (IC50, nM) RS4
# Procedure, shortened: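 H96, a CRISPR-generated RS4;11 clone carrying BCL2-G101V knock-in (WES/RNA-seq validated), seeded 50,000 per well and exposed 48 h at 37 °C to 10-point dilutions topping at 1 or 10 μM. Viability by CellTiter-Glo luminescence; mean IC50.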
# [7] = molecular target: recombinant human Bcl-2-G101V protein (Homo sapiens (Human), UniProt P10415, G101V); test: Bcl-2-G101V TR-FRET Assay; assay type: binding; conditions: Bcl-2 G101V mutant, TR-FRET; read-out: Biochemical assay (IC50, nM) Bcl-2 G101V
# Procedure, shortened: (§5)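 Ex337/em490 & 520 nm TR-FRET; % inhibition of Bcl-2-G101V–ligand interaction from 490:520 ratio vs. increasing compound conc.; IC50 by 4-parameter logistic fit.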
# [8] = test system: recombinant human Bcl-2-G101V protein; test: Bcl-2-G101V TR-FRET Assay; assay type: binding; conditions: ratio of biochemical IC50 Bcl-2 G101V / Bcl-2 WT
# Procedure, shortened: as §5
# [9] = Bcl-2 wild type, TR-FRET, read-out: Biochemical assay (IC50, nM) Bcl-2 WT
Compound,"IC50 ([1]; wild type Bcl-2, unit inferred, read-out: Bcl-2 WT)",IC50 [2],Ratio of Bcl-2 D103Y/Bcl-2 WT [2],half-life at 1 μM [3],microsomal CLint at 1 μM [3],half-life at 1 μM [4],microsomal CLint at 1 μM [4],IC50 ([5]; RS4;11 cells),"IC50 ([6]; RS4-11, 48 h)","IC50 [1, 9]",IC50 [7],Ratio of Bcl-2 G101V/WT [8],"IC50 ([5]; RS4-11, RS4;11 cells)",IC50 [6]
"COc1ccc(CN2CCN(C3CC4(CCN(c5ccc(C(=O)NS(=O)(=O)c6ccc(NC[C@H]7COCCO7)c([N+](=O)[O-])c6)c(Oc6cnc7[nH]ccc7c6)c5)CC4)C3)[C@H](c3ccccc3C(C)C)C2)cc1 (single isomer, unassigned) [Example 33, N-((4-((((S)-1,4-dioxan-2-yl)methyl)amino)-3-nitrophenyl)sulfonyl)-2-((1H-pyrrolo[2,3-b]pyridin-5-yl)oxy)-4-(2-((R or S)-2-(2-isopropylphenyl)-4-(4-methoxybenzyl)piperazin-1-yl)-7-azaspiro[3.5]nonan-7-yl)benzamide]",0.038 nM,0.094 nM,2.5,1820 min,0.8 µL/min/mg,233 min,5.9 µL/min/mg,,,,,,,
"COc1ccc(CN2CCN(C3CC4(CCN(c5ccc(C(=O)NS(=O)(=O)c6ccc(NC[C@H]7CC[C@](C)(O)CC7)c([N+](=O)[O-])c6)c(Oc6cnc7[nH]ccc7c6)c5)CC4)C3)C(c3ccccc3C(C)C)C2)cc1 (some centres unmarked) [Example 19, 2-((1H-pyrrolo[2,3-b]pyridin-5-yl)oxy)-N-((4-((((1r,4r)-4-hydroxy-4-methylcyclohexyl)methyl)amino)-3-nitrophenyl)sulfonyl)-4-(2-(2-(2-isopropylphenyl)-4-(4-methoxybenzyl)piperazin-1-yl)-7-azaspiro[3.5]nonan-7-yl)benzamide]",,,,1230 min,1.1 µL/min/mg,292 min,4.7 µL/min/mg,0.33 nM,1.9 nM,,,,,
COc1cc(CN2CCN(C3CC4(CCN(c5ccc(C(=O)NS(=O)(=O)c6ccc(NC[C@H]7CC[C@](C)(O)CC7)c([N+](=O)[O-])c6)c(Oc6cnc7[nH]ccc7c6)c5)CC4)C3)C(c3ccccc3C(C)C)C2)cc(OC)c1 (some centres unmarked) [Example 49],,,,93.4 min,14.8 µL/min/mg,205 min,6.7 µL/min/mg,0.49 nM,2.4 nM,,,,,
"CC(C)c1ccccc1C1CC(Cc2ccccc2)CCN1C1CC2(CCN(c3ccc(C(=O)NS(=O)(=O)c4ccc(NC[C@H]5CC[C@](C)(O)CC5)c([N+](=O)[O-])c4)c(Oc4cnc5[nH]ccc5c4)c3)CC2)C1 (some centres unmarked) [Example 67, 2-((1H-pyrrolo[2,3-b]pyridin-5-yl)oxy)-4-(2-(4-benzyl-2-(2-isopropylphenyl)piperidin-1-yl)-7-azaspiro[3.5]nonan-7-yl)-N-((4-((((1r,4r)-4-hydroxy-4-methylcyclohexyl)methyl)amino)-3-nitrophenyl)sulfonyl)benzamide]",,,,309 min,4.5 µL/min/mg,272 min,5.1 µL/min/mg,,,,,,,
"CC(C)c1ccccc1[C@@H]1CN(Cc2ccc(OC3CC3)c(OC3CC3)c2)CCN1C1CC2(C1)CN(c1ccc(C(=O)NS(=O)(=O)c3ccc(NC[C@H]4CC[C@](C)(O)CC4)c([N+](=O)[O-])c3)c(Oc3cnc4[nH]cc(F)c4c3)c1)C2 [Example 363, 4-(6-((R)-4-(3,4-dicyclopropoxybenzyl)-2-(2-isopropylphenyl)piperazin-1-yl)-2-azaspiro[3.3]heptan-2-yl)-2-((3-fluoro-1H-pyrrolo[2,3-b]pyridin-5-yl)oxy)-N-((4-((((1r,4r)-4-hydroxy-4-methylcyclohexyl)methyl)amino)-3-nitrophenyl)sulfonyl) benzamide]",,,,,< 1 µL/min/mg,,< 1 µL/min/mg,0.11 nM,0.14 nM,,,,,
CC(C)c1ccccc1[C@@H]1CN(Cc2ccc(OC3CC3)cc2)CCN1C1CC2(C1)CN(c1ccc(C(=O)NS(=O)(=O)c3ccc(NC[C@H]4CC[C@](C)(O)CC4)c([N+](=O)[O-])c3)c(Oc3cnc4[nH]cc(F)c4c3)c1)C2 [Example 365],,0.51 nM,1.1,,,,,,,0.46 nM,1.3 nM,2.9,0.12 nM,0.26 nM
COc1cc(CN2CCN(C3CC4(C3)CN(c3ccc(C(=O)NS(=O)(=O)c5ccc(NC[C@H]6CC[C@](C)(O)CC6)c([N+](=O)[O-])c5)c(Oc5cnc6[nH]cc(F)c6c5)c3)C4)[C@H](c3ccccc3C(C)C)C2)ccc1C1CCOCC1 [Example 367],,0.4 nM,1.2,,,,,,,0.35 nM,0.9 nM,2.6,0.11 nM,0.3 nM

# From patent US20240376097A1, “BCL-2 Inhibitor” (BeiGene Ltd., priority 2020, published 2024)
